Experimental data published in US7977354B2, “Heterocyclic compounds, their preparation and their use as medicaments, in particular as anti-alzheimer agents” (priority 2005, dated 2011).
Read-outs that look alike come from different tables or passages of the source.

Key:
[1] = biological target: T1, human acetylcholinesterase (Homo sapiens, UniProt P22303); assay: biochemical; assay type: biochemical; settings: for Inhibition of human acetylcholinesterase (apparent IC50), result in words: tested until solubility limit
T1 construct: human erythrocyte membranes as a AChE source; from tissue; host or cells: human erythrocyte membranes

muscarinic receptors = assay: Muscarinic receptors binding, radioligand [3H]-N-methylscopolamine, rat striatal membranes; settings: at 10^−5 M
Procedure: The ability of prodrugs of formula G and/or inhibitors of formula G+ to nonselectively bind muscarinic receptors was evaluated with conventional radioligand binding method.
The ability of bio precursors and/or inhibitors to nonselectively bind muscarinic receptors was evaluated with conventional radioligand binding method.
The assay mixture (PBS Buffer, 300 μL), rat striatal membranes as a muscarinic receptors source (1 g/L, 100 μL), unknown compound at various concentrations (50 μL) and ^3H—N-methylscopolamine as specific radioligand of muscarinic receptors. The 60.0 minutes incubation time at room temperature was selected after preliminary experiments performed to ensure that the equilibrium between studied ligand and radioligand on muscarinic receptors is reached. The reaction was stopped by rapid vacuum filtration through Whatman GF/C filter paper (pre-soaked in a solution of polyethylenimine (0.1%) to reduce binding to filters). Filters were subsequently washed with ice-cold buffer (PBS Buffer, 3×1.5 mL) and placed overnight in 3 mL of Ready-Safe scintillation cocktail (Beckman Coulter, Inc.). Radioactivity was measured using a Wallac liquid scintillation counter. Each experiment was carried out twice in duplicate.

Swiss albinos mice = assay: Acute toxicity in mice; assay type: in vivo; settings: female and male Swiss albinos mice, intraperitoneal injection; compound 67 tested under its inclusion form as compound 82
Procedure: The Acute toxicity studies were carried out using female and male Swiss albinos mice (25-35 g). Most of the compounds show a very low toxicity, namely with a DL50 higher than 10 mg/kg. […] The pharmacokinetic study was carried out using female and male Swiss albinos mice for the determination of half-life and distribution volume of a compound of the invention
The toxicity studies were carried out using female and male Swiss albinos mice (25-35 g). Animals were kept in a temperature-controlled environment (23±2° C.) with a 12 h light-dark cycle and food and water were freely available. The animals were divided into one control group and five treated groups, each group consisting of six animals. The control group received saline and each treated group received the studied ligand in a dose of 1, 3, 10, 30 and 100 mg/kg by intraperitoneal injection. The animals were observed continuously for 3 h, and then they were observed each hour during 72 h after administering the compound in order to observe any changes in general behaviour or other physiological activities. At the end of the experiment, animals were sacrificed by cervical displacement.

[2] = Pharmacokinetic: half-life and distribution volume in mice, plasma HPLC; settings: both, Swiss albino, mouse, in vivo, ip, 10 mg/kg
[3] = human erythrocyte membranes, acetylthiocholine iodide, pH 7.4, 10 min, room temperature, read-out: Inhibition of human acetylcholinesterase (apparent IC50)

T1 sequence (P22303 32-617 isoform P22303-2 limits assumed): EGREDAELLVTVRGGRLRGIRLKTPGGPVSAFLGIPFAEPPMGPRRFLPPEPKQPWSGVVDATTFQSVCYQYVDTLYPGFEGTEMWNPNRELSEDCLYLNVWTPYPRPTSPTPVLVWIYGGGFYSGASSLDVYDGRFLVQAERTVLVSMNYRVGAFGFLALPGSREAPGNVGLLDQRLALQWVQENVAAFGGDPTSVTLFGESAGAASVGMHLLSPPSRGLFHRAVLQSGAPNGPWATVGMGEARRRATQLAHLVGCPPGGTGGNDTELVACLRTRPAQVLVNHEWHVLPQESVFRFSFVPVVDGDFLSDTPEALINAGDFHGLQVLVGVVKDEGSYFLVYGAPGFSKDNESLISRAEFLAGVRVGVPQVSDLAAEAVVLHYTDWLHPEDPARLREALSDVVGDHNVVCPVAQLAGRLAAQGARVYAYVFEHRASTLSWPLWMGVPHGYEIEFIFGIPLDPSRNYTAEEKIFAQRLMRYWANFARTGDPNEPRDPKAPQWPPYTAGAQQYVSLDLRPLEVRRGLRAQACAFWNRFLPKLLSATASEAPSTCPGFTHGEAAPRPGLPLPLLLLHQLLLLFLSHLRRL

SMILES | IC50 [1, 3] | Displacement of [^3H] N-methylscopolamine from muscarinic receptors (muscarinic receptors) | Inhibition of human acetylcholinesterase (apparent IC50), result in words ([1]; human erythrocyte membranes) | other results
CCOC(=O)c1cc2ccc(OC(=O)N(C)C)cc2[n+](C)c1 [Compound 1D, ethyl 1-methyl-7-(N,N-dimethylcarbamate)quinolinium-3-carboxylate triflate] | 500 nM | 0% at 10^−5 M |  | 
CCOC(=O)c1cc2c(OC(=O)N(C)C)cccc2[n+](C)c1 [Compound 2E, Ethyl 5-(N,N-dimethylcarbamate)-1-methylquinolinium-3-carboxylate triflate] | 7 nM | 0% at 10^−5 M |  | 
COC(=O)c1cc2c(OC(=O)N(C)C)cccc2[n+](C)c1 [Compound 67E, Methyl 5-(N,N-dimethylcarbamate)-1-methylquinolinium-3-carboxylate triflate] |  | 0% at 10^−5 M |  | IC50 [1]: 110 nM
CNC(=O)c1cc2c(OC(=O)N(C)C)cccc2[n+](C)c1 [Compound 68D, 5-(N,N-dimethylcarbamate)-1-methyl-3-(N-methylcarboxamido)quinolinium triflate] | 29 nM | 0% à 10^−5 M |  | 
CN(C)C(=O)Oc1cccc2c1cc(C(=O)N(C)C)c[n+]2C [Compound 69D, 5-(N,N-dimethylcarbamate)-3-(N,N-dimethylcarboxamido)-1-methylquinolinium triflate] | 15 nM | 0% à 10^−5 M |  | 
CN(C)C(=O)Oc1cccc2c1cc(C(=O)N1CCOCC1)c[n+]2C [Compound 70D, 5-(N,N-dimethylcarbamate)-1-methyl-3-(morpholinocarboxy)quinolinium triflate] | 860 nM | 0% à 10^−5 M |  | 
CCNC(=O)Oc1cccc2c1cc(C(=O)OC)c[n+]2C [Compound 76B, Methyl 5-(N-ethylcarbamate)-1-methylquinolinium-3-carboxylate triflate] | 6000 nM |  |  | 
CCCNC(=O)c1cc2ccc(OC(=O)N(C)C)cc2[n+](C)c1 [Compound 78C, 7-(N,N-dimethylcarbamate)-3-(N-propylcarboxamido)-1-methylquinolinium triflate] | 50000 nM | 20% at 10^−5 M |  | 
CCOC(=O)C1=CN(C)c2cc(OC(=O)N(C)C)ccc2C1 [Example 1, ethyl 1-methyl-7-(N,N-dimethylcarbamate)-1,4-dihydroquinoline-3-carboxylate] |  | 0% at 10^−5 M | No inhibition until | 
CCOC(=O)C1=CN(C)c2cccc(OC(=O)N(C)C)c2C1 [Example 2, ethyl 1-methyl-5-(N,N-dimethylcarbamate)-1,4-dihydroquinoline-3-carboxylate] |  | 0% at 10^−5 M | No inhibition until | 
COC(=O)C1=CN(C)c2cccc(OC(=O)N(C)C)c2C1 [Example 67, methyl 5-(N,N-dimethylcarbamate)-1-methyl-1,4-dihydroquinoline-3-carboxylate] |  | 0% at 10^−5 M | No inhibition until | Acute toxicity (DL50) (Swiss albinos mice): 25 mg/kg; C0 [2]: 806 nM; half-life ([2]; Plasmatic half-life time T1/2, mice, intraperitoneal injection of 10 mg/kg of compound 67 under its inclusion form (example 82)): 14 min
CNC(=O)C1=CN(C)c2cccc(OC(=O)N(C)C)c2C1 [Example 68, 5-(N,N-dimethylcarbamate)-1-methyl-3-(N-methylcarboxamido)-1,4-dihydroquinoline] |  | 0% at 10^−5 M | No inhibition until | 
CN(C)C(=O)Oc1cccc2c1CC(C(=O)N1CCOCC1)=CN2C [Example 70, morpholine 4-[5-(N,N-dimethylcarbamate)-1-methyl-1,4-dihydroquinolyl-3-carbonyl]] |  | 0% à 10^−5 M | No inhibition until | 
CN(C)C(=O)Oc1cccc2c[n+](C)ccc12 [Example 71, 5-(N,N-dimethylcarbamate)-2-methylisoquinolinium triflate] | 50 nM |  |  | 
CN(C)C(=O)Oc1ccc2cc[n+](C)cc2c1 [Example 72, 7-(N,N-Dimethylcarbamate)-2-Methylisoquinolinium Triflate] | 5000 nM |  |  | 
COC(=O)c1cc2c(OC(=O)N(C)C)cc(OC(=O)N(C)C)cc2[n+](C)c1 [Example 73, Methyl 5,7-Bis(N,N-Dimethylcarbamate)-1-Methylquinolinium-3-Carboxylate Triflate] | > 10000 nM |  |  | 
COC(=O)c1cc2cccc(OC(=O)N(C)C)c2[n+](C)c1 [Example 74, Methyl 8-(N,N-Dimethylcarbamate)-1-Methylquinolinium-3-Carboxylate Triflate] | 1400 nM |  |  | 
CN(C)C(=S)Oc1cccc2c[n+](C)ccc12 [Example 75, 2-Methyl-5-(N,N-Dimethylthiocarbamate)-O-Isoquinolinium Triflate] | > 10000 nM |  |  | 
CCNC(=O)Oc1cccc2c1CC(C(=O)OC)=CN2C [Example 76, Methyl 1-Methyl-5-(N-Ethylcarbamate)-1,4-Dihydroquinoline-3-Carboxylate] |  |  | No inhibition until | 
CCOC(=O)c1cc2cccc(OC(=O)N(C)C)c2[n+](C)c1 [Example 77, Ethyl 1-Methyl-8-(N,N-Dimethylcarbamate)Quinolinium-3-Carboxylate Triflate] | 8000 nM |  |  | 
CCCNC(=O)C1=CN(C)c2cc(OC(=O)N(C)C)ccc2C1 [Example 78, 1-Methyl-3-(N-Propylcarboxamido)-7-(N,N-Dimethylcarbamate)-1,4-Dihydroquinoline] |  | 25% at 10^−5 M | No inhibition until | 
CCOC(=O)c1ccc[n+](Cc2ccc(OC(=O)N(C)C)cc2)c1 [Example 80] | 227 nM |  |  | 
